Results on three compounds are retold here after US6395739B1, “N-phenyl-N′-phenylpopylpiperazine derivatives and process for the preparation” (Zeria Pharmaceutical Co., Ltd., priority 1998, dated 2002).

Molecules are shown by their SMILES. Structures can show the parent of a compound that is named as a salt.

Assay [1] has as its system α1-adrenoceptor. As to the kind of experiment: α1-adrenoceptor blocking activity, phenylephrine-induced contraction of rabbit prostate smooth muscle strips. Further details: species or system Rabbits. To be noted: rabbit prostate strip; vs phenylephrine concentration-response curve; test drug 10^-7-10^-5 M for 30 minutes; 10^-5 M propranolol present. The protocol:
(§1) <α1-Adrenoceptor Blocking Activity>
(§2) Rabbits were exsanguinated to death, and the prostatic urethra and the prostate were removed and smooth muscle strips were prepared. Each strip was suspended in a 37° C. Krebs-solution-containing organ bath which had been bubbled with 95% O2 and 5% CO2. Isometric contraction under a resting tension of 1 g was recorded by an isometric transducer (by Nihon Koden: TB-651T) on a pen-type recorder (product of Nihon Denki San'ei: RECTI HORIZ 8K).
(§3) After the strips had been equilibrated for 60 minutes, contractions were elicited by use of a certain concentration of phenylephrine (10^−5 M). Subsequently, the organ bath was washed with a physiological solution, and the above procedure was repeated at 60-minute intervals of resting time until constant constriction responses of the strips were obtained. Next, phenylephrine was added cumulatively to organ bath(10^−7-3×10^−4 M), to thereby obtain concentration-response curves (control). After the resting period of 60 minutes following washing of the strip, test samples (DMSO solutions containing the test drug; 10^−7-10^−5 M) were treated for 30 minutes, and concentration-response curves of phenylephrine were obtained.
(§4) The composition of the physiological solution was as follows: NaCl 118.4 mM, KCl 4.7 mM, MgCl2 1.2 mM, CaCl2 2.5 mM, NaHCO3 25.0 mM, glucose […], and KH2PO4 1.2 mM.
(§5) In all cases, 10^−5 M propranolol (β-adrenoceptor antagonist) was added to the physiological solution 10 minutes before test sample was treated with strip.
(§6) The potency of each test drug with regard to the α1-adrenoceptor blocking activity was evaluated on the basis of calculation of pA2 (inverse of the logarithm of the concentration by mole of the antagonist which, in the presence of the antagonist, requires twice the concentration of the agonist for providing the same effect as required in the absence of the antagonist).

The subject of assay [2] is α1-adrenoceptor. As to the kind of experiment: α1-adrenoceptor blocking activity, phenylephrine-induced contraction of rabbit prostatic urethra smooth muscle strips. Set-up: species or system Rabbits. To be noted: rabbit prostatic urethra strip; vs phenylephrine concentration-response curve; test drug 10^-7-10^-5 M for 30 minutes; 10^-5 M propranolol present. As to the method:
as §1, §2, §3, §4, §5, §6

As for `COc1ccccc1N1CCN(CC[C@H](Oc2ccc(C#N)cc2)c2ccc(C)cc2)CC1` [Example 1, (S)-4-[3-[4-(2-methoxyphenyl)piperazin-1-yl]-1-(4-methylphenyl)propoxy]benzonitrile dihydrochloride], in the assay with α1-adrenoceptor [1], the pA2 prostate was found to be 8.00. In the assay with α1-adrenoceptor [2], the “pA2 Urethra” value is given as 8.44.
For `COc1ccccc1N1CCN(CC[C@H](Oc2ccc(C(=O)O)cc2)c2ccc(C)cc2)CC1` [Example 2, (S)-4-[3-[4-(2-methoxyphenyl)piperazin-1-yl]-1-(4-methylphenyl)propoxy]benzoic acid], the pA2 prostate with α1-adrenoceptor [1] was determined as 8.67. In the assay on α1-adrenoceptor [2], the “pA2 Urethra” value came to 8.73.
On to `COc1ccccc1N1CCN(CC[C@H](Oc2ccc(C(=O)c3c[nH]c4ccccc34)cc2)c2ccc(C)cc2)CC1.Cl` [Example 3, (S)-3-[4-[3-[4-(2-methoxyphenyl)piperazin-1-yl]-1-(4-methylphenyl)propoxy]benzoyl]indole hydrochloride], for which the pA2 prostate in the assay with α1-adrenoceptor [1] came to 6.89. For the same compound, in the assay on α1-adrenoceptor [2], the “pA2 Urethra” value is on record as 6.29.
